In ChEMBL document CHEMBL1201862, “PubChem BioAssay data set” (2004):
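48-hour exposure; five concentrations; linearly interpolated endpoints. Abbreviation: GI50, concentration required for 50% inhibition of growth.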 The source made the active and inactive calls. No stated cut-off is given here; in the data, active = GI50 up to about 1.1 µM and inactive = higher.

Columns and labels:
Assay in all cases: NCI tumour cell line growth inhibition, 48 h
A549 = system: A549
HCT-116 = system: HCT-116
SK-MEL-5 = system: SK-MEL-5
EKVX = system: EKVX
SR = system: SR
MDA-MB-231 = system: MDA-MB-231
NCI-H23 = system: NCI-H23
HCT-15 = system: HCT-15
SF-295 = system: SF-295
T47D = system: T47D
LOX IMVI = system: LOX IMVI
CCRF-CEM = system: CCRF-CEM
OVCAR-5 = system: OVCAR-5
SK-MEL-28 = system: SK-MEL-28
RXF 393 = system: RXF 393
SNB-75 = system: SNB-75
COLO 205 = system: COLO 205
SNB-19 = system: SNB-19
U-251 = system: U-251
MCF7 = system: MCF7
HOP-62 = system: HOP-62
HL-60 = system: HL-60
NCI-H522 = system: NCI-H522
ACHN = system: ACHN
A498 = system: A498
OVCAR-3 = system: OVCAR-3
OVCAR-4 = system: OVCAR-4
OVCAR-8 = system: OVCAR-8
MOLT-4 = system: MOLT-4
HCC 2998 = system: HCC 2998
NCI-H460 = system: NCI-H460
SF-268 = system: SF-268
HT-29 = system: HT-29
PC-3 = system: PC-3
SW-620 = system: SW-620
KM12 = system: KM12
786-0 = system: 786-0
Hs-578T = system: Hs-578T
SK-OV-3 = system: SK-OV-3
SK-MEL-2 = system: SK-MEL-2
TK-10 = system: TK-10
UO-31 = system: UO-31
MDA-MB-435 = system: MDA-MB-435
UACC-62 = system: UACC-62
BT-549 = system: BT-549
IGROV-1 = system: IGROV-1
K562 = system: K562
CAKI-1 = system: CAKI-1
M14 = system: M14
DU-145 = system: DU-145
UACC-257 = system: UACC-257
NCI-H226 = system: NCI-H226
HOP-92 = system: HOP-92
SF-539 = system: SF-539
NCI/ADR-RES = system: NCI/ADR-RES
RPMI-8226 = system: RPMI-8226
MDA-N = system: MDA-N
SN12C = system: SN12C
Malme-3M = system: Malme-3M

## CC1=Cc2ccc(C)cc2C(=O)C1=O
A549
  GI50: 23.7 µM (inactive)
HCT-116
  GI50: 5.47 µM (inactive)
SK-MEL-5
  GI50: 20.4 µM (inactive)
EKVX
  GI50: 18.3 µM (inactive)
SR
  GI50: 1.58 µM (inactive)
MDA-MB-231
  GI50: 20.6 µM (inactive)
NCI-H23
  GI50: 17.3 µM (inactive)
HCT-15
  GI50: 19.3 µM
SF-295
  GI50: 18.5 µM (inactive)
T47D
  GI50: 1.82 µM (inactive)
LOX IMVI
  GI50: 4.66 µM (inactive)
CCRF-CEM
  GI50: 0.176 µM (active)
OVCAR-5
  GI50: 18.3 µM (inactive)
SK-MEL-28
  GI50: 21.6 µM (inactive)
RXF 393
  GI50: 1.83 µM (inactive)
SNB-75
  GI50: 8.3 µM (inactive)
COLO 205
  GI50: 6.07 µM (inactive)
SNB-19
  GI50: 22.2 µM (inactive)
U-251
  GI50: 20.4 µM (inactive)
MCF7
  GI50: 6.97 µM (inactive)
HOP-62
  GI50: 21.3 µM (inactive)
HL-60
  GI50: 1 µM (active)
NCI-H522
  GI50: 1.64 µM (inactive)
ACHN
  GI50: 1.95 µM (inactive)
A498
  GI50: 22.4 µM (inactive)
OVCAR-3
  GI50: 4.79 µM (inactive)
OVCAR-4
  GI50: 4.94 µM (inactive)
OVCAR-8
  GI50: 5.3 µM (inactive)
MOLT-4
  GI50: 0.605 µM (active)
HCC 2998
  GI50: 14.9 µM (inactive)
NCI-H460
  GI50: 19.8 µM (inactive)
SF-268
  GI50: 8.67 µM (inactive)
HT-29
  GI50: 20.1 µM (inactive)
PC-3
  GI50: 15.8 µM (inactive)
SW-620
  GI50: 2.81 µM (inactive)
KM12
  GI50: 17.6 µM (inactive)
786-0
  GI50: 1.85 µM (inactive)
Hs-578T
  GI50: 13.9 µM (inactive)
SK-OV-3
  GI50: 13.9 µM (inactive)
SK-MEL-2
  GI50: 19.9 µM (inactive)
TK-10
  GI50: 1.83 µM (inactive)
UO-31
  GI50: 1.64 µM (inactive)
MDA-MB-435
  GI50: 2.06 µM (inactive)
UACC-62
  GI50: 20.2 µM (inactive)
BT-549
  GI50: 21.2 µM (inactive)
IGROV-1
  GI50: 14.4 µM (inactive)
K562
  GI50: 2.07 µM (inactive)
CAKI-1
  GI50: 5.07 µM (inactive)
M14
  GI50: 4.81 µM (inactive)
DU-145
  GI50: 16.8 µM (inactive)
UACC-257
  GI50: 5.89 µM (inactive)
NCI-H226
  GI50: 36.1 µM (inactive)
HOP-92
  GI50: 6.18 µM (inactive)
SF-539
  GI50: 6.28 µM (inactive)
NCI/ADR-RES
  GI50: 18.8 µM (inactive)
RPMI-8226
  GI50: 2.16 µM (inactive)
MDA-N
  GI50: 4.18 µM (inactive)
SN12C
  GI50: 5.04 µM (inactive)

## CC(C)OC(=O)c1ccc(NCC2=CC(=O)C=CC2=O)cc1Cl
A549
  GI50: 31.9 µM (inactive)
HCT-116
  GI50: 19.3 µM (inactive)
SK-MEL-5
  GI50: 18.7 µM (inactive)
EKVX
  GI50: 15.4 µM (inactive)
SR
  GI50: 1.58 µM (inactive)
MDA-MB-231
  GI50: 16.4 µM (inactive)
NCI-H23
  GI50: 13.2 µM (inactive)
HCT-15
  GI50: 4.4 µM
SF-295
  GI50: 17.8 µM (inactive)
T47D
  GI50: 2.3 µM (inactive)
LOX IMVI
  GI50: 10.5 µM (inactive)
CCRF-CEM
  GI50: 0.448 µM (active)
OVCAR-5
  GI50: 22.2 µM (inactive)
SK-MEL-28
  GI50: 17.2 µM (inactive)
RXF 393
  GI50: 17.1 µM (inactive)
SNB-75
  GI50: 15.8 µM (inactive)
COLO 205
  GI50: 4.07 µM (inactive)
SNB-19
  GI50: 6.11 µM (inactive)
U-251
  GI50: 16.9 µM (inactive)
MCF7
  GI50: 14.9 µM (inactive)
HOP-62
  GI50: 32.5 µM (inactive)
HL-60
  GI50: 0.904 µM (active)
NCI-H522
  GI50: 1.02 µM (active)
ACHN
  GI50: 4.36 µM (inactive)
A498
  GI50: 16.3 µM (inactive)
OVCAR-3
  GI50: 10.4 µM (inactive)
OVCAR-4
  GI50: 12.7 µM (inactive)
OVCAR-8
  GI50: 5.68 µM (inactive)
MOLT-4
  GI50: 3.72 µM (inactive)
HCC 2998
  GI50: 15.2 µM (inactive)
NCI-H460
  GI50: 19.2 µM (inactive)
SF-268
  GI50: 12.1 µM (inactive)
HT-29
  GI50: 16.3 µM (inactive)
PC-3
  GI50: 8.3 µM (inactive)
SW-620
  GI50: 11.5 µM (inactive)
KM12
  GI50: 13.5 µM (inactive)
786-0
  GI50: 14.1 µM (inactive)
Hs-578T
  GI50: 23.3 µM (inactive)
SK-OV-3
  GI50: 31.4 µM (inactive)
SK-MEL-2
  GI50: 31.7 µM (inactive)
TK-10
  GI50: 15.7 µM (inactive)
UO-31
  GI50: 3.29 µM (inactive)
MDA-MB-435
  GI50: 9.44 µM (inactive)
UACC-62
  GI50: 13.2 µM (inactive)
BT-549
  GI50: 2.62 µM (inactive)
IGROV-1
  GI50: 11.5 µM (inactive)
K562
  GI50: 2.73 µM (inactive)
CAKI-1
  GI50: 2.19 µM (inactive)
M14
  GI50: 27.8 µM (inactive)
DU-145
  GI50: 18.3 µM (inactive)
UACC-257
  GI50: 16.1 µM (inactive)
NCI-H226
  GI50: 25.7 µM (inactive)
HOP-92
  GI50: 4.89 µM (inactive)
SF-539
  GI50: 12 µM (inactive)
NCI/ADR-RES
  GI50: 7.93 µM (inactive)
MDA-N
  GI50: 8.39 µM (inactive)
SN12C
  GI50: 16.1 µM (inactive)

## O=c1ccn(CC2(CO)CCCC2)c(=O)[nH]1
A549
  GI50: > 100 µM (inactive)
HCT-116
  GI50: > 100 µM (inactive)
SK-MEL-5
  GI50: > 100 µM (inactive)
EKVX
  GI50: > 100 µM (inactive)
SR
  GI50: > 100 µM (inactive)
MDA-MB-231
  GI50: > 100 µM (inactive)
NCI-H23
  GI50: > 100 µM (inactive)
HCT-15
  GI50: > 100 µM
SF-295
  GI50: > 100 µM (inactive)
T47D
  GI50: > 100 µM (inactive)
LOX IMVI
  GI50: > 100 µM (inactive)
CCRF-CEM
  GI50: > 100 µM (inactive)
OVCAR-5
  GI50: > 100 µM (inactive)
SK-MEL-28
  GI50: > 100 µM (inactive)
RXF 393
  GI50: > 100 µM (inactive)
SNB-75
  GI50: > 100 µM (inactive)
COLO 205
  GI50: > 100 µM (inactive)
U-251
  GI50: > 100 µM (inactive)
MCF7
  GI50: > 100 µM (inactive)
HOP-62
  GI50: > 100 µM (inactive)
HL-60
  GI50: > 100 µM (inactive)
NCI-H522
  GI50: > 100 µM (inactive)
ACHN
  GI50: > 100 µM (inactive)
A498
  GI50: 7.64 µM (inactive)
OVCAR-3
  GI50: > 100 µM (inactive)
OVCAR-4
  GI50: > 100 µM (inactive)
OVCAR-8
  GI50: > 100 µM (inactive)
Malme-3M
  GI50: > 100 µM (inactive)
MOLT-4
  GI50: > 100 µM (inactive)
HCC 2998
  GI50: > 100 µM (inactive)
NCI-H460
  GI50: > 100 µM (inactive)
SF-268
  GI50: > 100 µM (inactive)
HT-29
  GI50: > 100 µM (inactive)
PC-3
  GI50: > 100 µM (inactive)
SW-620
  GI50: > 100 µM (inactive)
KM12
  GI50: > 100 µM (inactive)
786-0
  GI50: > 100 µM (inactive)
Hs-578T
  GI50: > 100 µM (inactive)
SK-OV-3
  GI50: > 100 µM (inactive)
SK-MEL-2
  GI50: > 100 µM (inactive)
TK-10
  GI50: > 100 µM (inactive)
UO-31
  GI50: > 100 µM (inactive)
MDA-MB-435
  GI50: > 100 µM (inactive)
UACC-62
  GI50: > 100 µM (inactive)
BT-549
  GI50: > 100 µM (inactive)
IGROV-1
  GI50: > 100 µM (inactive)
K562
  GI50: > 100 µM (inactive)
CAKI-1
  GI50: > 100 µM (inactive)
DU-145
  GI50: > 100 µM (inactive)
UACC-257
  GI50: > 100 µM (inactive)
NCI-H226
  GI50: > 100 µM (inactive)
HOP-92
  GI50: > 100 µM (inactive)
SF-539
  GI50: > 100 µM (inactive)
NCI/ADR-RES
  GI50: > 100 µM (inactive)
RPMI-8226
  GI50: > 100 µM (inactive)
MDA-N
  GI50: > 100 µM (inactive)
SN12C
  GI50: > 100 µM (inactive)
